Results published in the SangsterLogP compilation.

**Q.** For O=C(NCC1CCCCN1)c1cc(OCC(F)(F)F)ccc1OCC(F)(F)F (stereo not drawn), which logP is on record?
**A.** 3.78

**Q.** With C=CCN1CCCC1CNC(=O)c1cc(S(N)(=O)=O)cc(OC)c1OC (stereo not drawn) as the molecule, how does the logP read?
**A.** 1.47

**Q.** For CN1CCN(CCCN2c3ccccc3Sc3ccccc32)CC1, which logP is on record?
**A.** 4

**Q.** For CCN(CC)CCNC(=O)c1ccc(N)cc1, which logP is on record?
**A.** 0.82

**Q.** Which logP does the source give for CN1CCCCC1CCN1c2ccccc2Sc2ccc(S(C)(=O)=O)cc21 (stereo not drawn) here?
**A.** 4.45

**Q.** With CC(C)NCC(O)COc1cccc2c1N(C(=O)c1cccnc1)CCC2 (stereo not drawn) as the molecule, how does the logP read?
**A.** 1.63

**Q.** For CNC(=O)Nc1c(OCCN2CCCC2)c(OC)c2occc2c1OC, which logP is on record?
**A.** 1.38

**Q.** With CCN(CC)CCCN(c1ccccc1)C1Cc2ccccc2C1 as the molecule, how does the logP read?
**A.** 4.86

**Q.** Which logP does the source give for CN(C)CCCN1c2ccccc2Sc2ccccc21 here?
**A.** 4.64

**Q.** Which logP does the source give for CC(C)NCCCC1(C(N)=O)c2ccccc2-c2ccccc21 here?
**A.** 3.11

**Q.** Which logP does the source give for CC(C)(C)c1cc(C(O)CCC2CCNCC2)c2ccccc2n1 (stereo not drawn) here?
**A.** 3.63

**Q.** Which logP does the source give for COc1ccc2c(c1)-c1c(ccc(OC)c1O)CC(CCc1ccccc1)N(C)CC2 (stereo not drawn) here?
**A.** 4.85

**Q.** For C=CCN1CCCC1CNC(=O)c1cc(S(=O)(=O)NC)c(N)cc1OC (stereo not drawn), which logP is on record?
**A.** 1.69
